Test system: Lolium perenne (LOLPE)
Assay: Post-emergence herbicidal activity
Assay type: in vivo
Conditions: post-emergence application, 1000 g/Ha, evaluated after 13 days, scale 0-5; Table 7
Experimental: (§1) B2 Post-Emergence Herbicidal Activity
(§2) Seeds of a variety of test species were sown in standard soil in pots: Triticum aestivium (TRZAW), Oryza sativa (ORYSA), Avena fatua (AVEFA), Alopecurus myosuroides (ALOMY), Echinochloa crus-galli (ECHCG), Lolium perenne (LOLPE), Zea Mays (ZEAMX), Abutilon theophrasti (ABUTH), Amaranthus retroflexus (AMARE) and Setaria faberi (SETFA). After 8 days cultivation (post-emergence) under controlled conditions in a glasshouse (at 24/16° C., day/night; 14 hours light; 65% humidity), the plants were sprayed with an aqueous spray solution derived from the formulation of the technical active ingredient in acetone/water (50:50) solution containing 0.5% Tween 20 (polyoxyethelyene sorbitan monolaurate, CAS RN 9005-64-5). The test plants were then grown in a glasshouse under controlled conditions (at 24/16° C., day/night; 14 hours light; 65% humidity) and watered twice daily. After 13 days, the test was evaluated (5=total damage to plant; 0=no damage to plant).

Row | Compound | Control of weed species, LOLPE (damage score)
1 | Cc1nc(-c2cccnc2)sc1N(C)C(=O)NOC(C)(C)C [Compound A45, 3-tert-butoxy-1-methyl-1-(4-methyl-2-(3-pyridyl)thiazol-5-yl)urea] | 4
2 | CN(C(=O)OC(C)(C)C)c1sc(-c2cncc(F)c2)nc1Br [Compound A51] | 2
3 | CCN(C(=O)OC(C)(C)C)c1sc(-c2cccnc2)nc1C [Compound A17] | 2
4 | Cc1nc(-c2cncc(Cl)c2)sc1N(C)C(=O)OC(C)(C)C [Compound A4] | 2
5 | CN(C(=O)OC(C)(C)C)c1sc(-c2cncc(F)c2)nc1I [Compound A52] | 3

Test system: Triticum aestivium (TRZAW)
Assay: Post-emergence herbicidal activity
Assay type: in vivo
Conditions: post-emergence application, 1000 g/Ha, evaluated after 13 days, scale 0-5
Experimental: as §1, §2

Row | Compound | Control of weed species, TRZAW (damage score)
6 | Cc1nc(-c2cccnc2)sc1N(C)C(=O)NOC(C)(C)C [Compound A45, 3-tert-butoxy-1-methyl-1-(4-methyl-2-(3-pyridyl)thiazol-5-yl)urea] | 2
7 | CN(C(=O)OC(C)(C)C)c1sc(-c2cncc(F)c2)nc1Br [Compound A51] | 0
8 | CCN(C(=O)OC(C)(C)C)c1sc(-c2cccnc2)nc1C [Compound A17] | 1
9 | Cc1nc(-c2cncc(Cl)c2)sc1N(C)C(=O)OC(C)(C)C [Compound A4] | 1
10 | CN(C(=O)OC(C)(C)C)c1sc(-c2cncc(F)c2)nc1I [Compound A52] | 1

Test system: Alopecurus myosuroides (ALOMY)
Assay: Post-emergence herbicidal activity
Assay type: in vivo
Conditions: post-emergence application, 1000 g/Ha, evaluated after 13 days, scale 0-5
Experimental: as §1, §2

Row | Compound | Control of weed species, ALOMY (damage score)
11 | Cc1nc(-c2cccnc2)sc1N(C)C(=O)NOC(C)(C)C [Compound A45, 3-tert-butoxy-1-methyl-1-(4-methyl-2-(3-pyridyl)thiazol-5-yl)urea] | 1
12 | CN(C(=O)OC(C)(C)C)c1sc(-c2cncc(F)c2)nc1Br [Compound A51] | 0
13 | CCN(C(=O)OC(C)(C)C)c1sc(-c2cccnc2)nc1C [Compound A17] | 1
14 | Cc1nc(-c2cncc(Cl)c2)sc1N(C)C(=O)OC(C)(C)C [Compound A4] | 0
15 | CN(C(=O)OC(C)(C)C)c1sc(-c2cncc(F)c2)nc1I [Compound A52] | 1

Test system: Echinochloa crus-galli (ECHCG)
Assay: Post-emergence herbicidal activity
Assay type: in vivo
Conditions: post-emergence application, 1000 g/Ha, evaluated after 13 days, scale 0-5; Table 7
Experimental: as §1, §2

Row | Compound | Control of weed species, ECHCG (damage score)
16 | Cc1nc(-c2cccnc2)sc1N(C)C(=O)NOC(C)(C)C [Compound A45, 3-tert-butoxy-1-methyl-1-(4-methyl-2-(3-pyridyl)thiazol-5-yl)urea] | 4
17 | CN(C(=O)OC(C)(C)C)c1sc(-c2cncc(F)c2)nc1Br [Compound A51] | 4
18 | CCN(C(=O)OC(C)(C)C)c1sc(-c2cccnc2)nc1C [Compound A17] | 1
19 | Cc1nc(-c2cncc(Cl)c2)sc1N(C)C(=O)OC(C)(C)C [Compound A4] | 4
20 | CN(C(=O)OC(C)(C)C)c1sc(-c2cncc(F)c2)nc1I [Compound A52] | 4

Test system: Avena fatua (AVEFA)
Assay: Post-emergence herbicidal activity
Assay type: in vivo
Conditions: post-emergence application, 1000 g/Ha, evaluated after 13 days, scale 0-5
Experimental: as §1, §2

Row | Compound | Control of weed species, AVEFA (damage score)
21 | Cc1nc(-c2cccnc2)sc1N(C)C(=O)NOC(C)(C)C [Compound A45, 3-tert-butoxy-1-methyl-1-(4-methyl-2-(3-pyridyl)thiazol-5-yl)urea] | 5
22 | CN(C(=O)OC(C)(C)C)c1sc(-c2cncc(F)c2)nc1Br [Compound A51] | 4
23 | CCN(C(=O)OC(C)(C)C)c1sc(-c2cccnc2)nc1C [Compound A17] | 4
24 | Cc1nc(-c2cncc(Cl)c2)sc1N(C)C(=O)OC(C)(C)C [Compound A4] | 5
25 | CN(C(=O)OC(C)(C)C)c1sc(-c2cncc(F)c2)nc1I [Compound A52] | 4

Test system: Oryza sativa (ORYSA)
Assay: Post-emergence herbicidal activity
Assay type: in vivo
Conditions: post-emergence application, 1000 g/Ha, evaluated after 13 days, scale 0-5
Experimental: as §1, §2

Row | Compound | Control of weed species, ORYSA (damage score)
26 | Cc1nc(-c2cccnc2)sc1N(C)C(=O)NOC(C)(C)C [Compound A45, 3-tert-butoxy-1-methyl-1-(4-methyl-2-(3-pyridyl)thiazol-5-yl)urea] | 2
27 | CN(C(=O)OC(C)(C)C)c1sc(-c2cncc(F)c2)nc1Br [Compound A51] | 0
28 | CCN(C(=O)OC(C)(C)C)c1sc(-c2cccnc2)nc1C [Compound A17] | 2
29 | Cc1nc(-c2cncc(Cl)c2)sc1N(C)C(=O)OC(C)(C)C [Compound A4] | 1
30 | CN(C(=O)OC(C)(C)C)c1sc(-c2cncc(F)c2)nc1I [Compound A52] | 0

Test system: Lolium perenne (LOLPE)
Assay: Pre-emergence herbicidal activity
Assay type: in vivo
Conditions: pre-emergence application, 1000 g/Ha, evaluated after 13 days, scale 0-5; Table 5
Experimental: (§3) B1 Pre-Emergence Herbicidal Activity
as §2, with “After” for “After 8 days”, “for one day (pre-emergence)” for “(post-emergence)”

Row | Compound | Control of weed species, LOLPE (damage score)
31 | Cc1nc(-c2cccnc2)sc1N(C)C(=O)NOC(C)(C)C [Compound A45, 3-tert-butoxy-1-methyl-1-(4-methyl-2-(3-pyridyl)thiazol-5-yl)urea] | 2
32 | CN(C(=O)OC(C)(C)C)c1sc(-c2cncc(F)c2)nc1Br [Compound A51] | 3
33 | CCN(C(=O)OC(C)(C)C)c1sc(-c2cccnc2)nc1C [Compound A17] | 0
34 | Cc1nc(-c2cncc(Cl)c2)sc1N(C)C(=O)OC(C)(C)C [Compound A4] | 2
35 | CN(C(=O)OC(C)(C)C)c1sc(-c2cncc(F)c2)nc1I [Compound A52] | 3

Test system: Triticum aestivium (TRZAW)
Assay: Pre-emergence herbicidal activity
Assay type: in vivo
Conditions: pre-emergence application, 1000 g/Ha, evaluated after 13 days, scale 0-5
Experimental: as §3
as §2, with “After” for “After 8 days”, “for one day (pre-emergence)” for “(post-emergence)”

Row | Compound | Control of weed species, TRZAW (damage score)
36 | Cc1nc(-c2cccnc2)sc1N(C)C(=O)NOC(C)(C)C [Compound A45, 3-tert-butoxy-1-methyl-1-(4-methyl-2-(3-pyridyl)thiazol-5-yl)urea] | 1
37 | CN(C(=O)OC(C)(C)C)c1sc(-c2cncc(F)c2)nc1Br [Compound A51] | 0
38 | CCN(C(=O)OC(C)(C)C)c1sc(-c2cccnc2)nc1C [Compound A17] | 0
39 | Cc1nc(-c2cncc(Cl)c2)sc1N(C)C(=O)OC(C)(C)C [Compound A4] | 0
40 | CN(C(=O)OC(C)(C)C)c1sc(-c2cncc(F)c2)nc1I [Compound A52] | 0

Test system: Alopecurus myosuroides (ALOMY)
Assay: Pre-emergence herbicidal activity
Assay type: in vivo
Conditions: pre-emergence application, 1000 g/Ha, evaluated after 13 days, scale 0-5
Experimental: as §3
as §2, with “After” for “After 8 days”, “for one day (pre-emergence)” for “(post-emergence)”

Row | Compound | Control of weed species, ALOMY (damage score)
41 | Cc1nc(-c2cccnc2)sc1N(C)C(=O)NOC(C)(C)C [Compound A45, 3-tert-butoxy-1-methyl-1-(4-methyl-2-(3-pyridyl)thiazol-5-yl)urea] | 2
42 | CN(C(=O)OC(C)(C)C)c1sc(-c2cncc(F)c2)nc1Br [Compound A51] | 0
43 | CCN(C(=O)OC(C)(C)C)c1sc(-c2cccnc2)nc1C [Compound A17] | 0
44 | Cc1nc(-c2cncc(Cl)c2)sc1N(C)C(=O)OC(C)(C)C [Compound A4] | 1
45 | CN(C(=O)OC(C)(C)C)c1sc(-c2cncc(F)c2)nc1I [Compound A52] | 0

Test system: Echinochloa crus-galli (ECHCG)
Assay: Pre-emergence herbicidal activity
Assay type: in vivo
Conditions: pre-emergence application, 1000 g/Ha, evaluated after 13 days, scale 0-5; Table 5
Experimental: as §3
as §2, with “After” for “After 8 days”, “for one day (pre-emergence)” for “(post-emergence)”

Row | Compound | Control of weed species, ECHCG (damage score)
46 | Cc1nc(-c2cccnc2)sc1N(C)C(=O)NOC(C)(C)C [Compound A45, 3-tert-butoxy-1-methyl-1-(4-methyl-2-(3-pyridyl)thiazol-5-yl)urea] | 3
47 | CN(C(=O)OC(C)(C)C)c1sc(-c2cncc(F)c2)nc1Br [Compound A51] | 1
48 | CCN(C(=O)OC(C)(C)C)c1sc(-c2cccnc2)nc1C [Compound A17] | 0
49 | Cc1nc(-c2cncc(Cl)c2)sc1N(C)C(=O)OC(C)(C)C [Compound A4] | 4
50 | CN(C(=O)OC(C)(C)C)c1sc(-c2cncc(F)c2)nc1I [Compound A52] | 2

Test system: Avena fatua (AVEFA)
Assay: Pre-emergence herbicidal activity
Assay type: in vivo
Conditions: pre-emergence application, 1000 g/Ha, evaluated after 13 days, scale 0-5
Experimental: as §3
as §2, with “After” for “After 8 days”, “for one day (pre-emergence)” for “(post-emergence)”

Row | Compound | Control of weed species, AVEFA (damage score)
51 | Cc1nc(-c2cccnc2)sc1N(C)C(=O)NOC(C)(C)C [Compound A45, 3-tert-butoxy-1-methyl-1-(4-methyl-2-(3-pyridyl)thiazol-5-yl)urea] | 3
52 | CN(C(=O)OC(C)(C)C)c1sc(-c2cncc(F)c2)nc1Br [Compound A51] | 2
53 | CCN(C(=O)OC(C)(C)C)c1sc(-c2cccnc2)nc1C [Compound A17] | 0
54 | Cc1nc(-c2cncc(Cl)c2)sc1N(C)C(=O)OC(C)(C)C [Compound A4] | 4
55 | CN(C(=O)OC(C)(C)C)c1sc(-c2cncc(F)c2)nc1I [Compound A52] | 3

Test system: Oryza sativa (ORYSA)
Assay: Pre-emergence herbicidal activity
Assay type: in vivo
Conditions: pre-emergence application, 1000 g/Ha, evaluated after 13 days, scale 0-5
Experimental: as §3
as §2, with “After” for “After 8 days”, “for one day (pre-emergence)” for “(post-emergence)”

Row | Compound | Control of weed species, ORYSA (damage score)
56 | Cc1nc(-c2cccnc2)sc1N(C)C(=O)NOC(C)(C)C [Compound A45, 3-tert-butoxy-1-methyl-1-(4-methyl-2-(3-pyridyl)thiazol-5-yl)urea] | 2
57 | CN(C(=O)OC(C)(C)C)c1sc(-c2cncc(F)c2)nc1Br [Compound A51] | 0
58 | CCN(C(=O)OC(C)(C)C)c1sc(-c2cccnc2)nc1C [Compound A17] | 0
59 | Cc1nc(-c2cncc(Cl)c2)sc1N(C)C(=O)OC(C)(C)C [Compound A4] | 0
60 | CN(C(=O)OC(C)(C)C)c1sc(-c2cncc(F)c2)nc1I [Compound A52] | 1

Source: patent US11470846B2, “Herbicidal pyridino-/pyrimidino-thiazoles” (SYNGENTA PARTICIPATIONS AG, priority 2014, dated 2022)
